Read-outs that look alike come from different tables or passages of the source.
Columns and labels:
[1] = tested on: human liver microtissues; experiment: LPS-sensitization assay in liver microtissues; format: cell-based; conditions: for IC50: cellular ATP on Day 14
Experimental: Six replicates were tested for each condition. […] Cellular ATP content was measured in the cell lysate on Day 14 of treatment. LDH release was measured on Days 5, 9, and 14 in the cell supernatant and normalized to lysed controls.
(§1) Intracellular ATP content in model lysates was measured with the CellTiter-Glo® 2.0 Cell Viability Assay (Catalogue No. G9243, Promega). The Bioluminescent LDH Release Toxicity Assay Kit (Catalogue No. J2380, Promega) was used to assess extracellular LDH release and normalized to lysed controls. ATP, LDH, GSH, and triglycerides were measured according to internal technical operating procedures.

[2] = tested on: Hepatocyte spheroids; experiment: Hepatocyte spheroid (monoculture, no nonparenchymal cells) cytotoxicity, cellular ATP; format: cell-based, human
Experimental: Toxicology of TAK-994 was assessed using lnSphero’s 3D lnSight Human Liver models, based on N-acetyl-L-cysteine causality assay, glutathione depletion assay, and lipopolysaccharide (LPS)-sensitization assay. Hepatotoxicity was assessed in 7- and 14-day mono and co-culture models, in which cells were exposed to TAK-994 (0.1, 0.3, 1, 3.16, 10, 31.6, or 100 μM) […].
The test system was Human 3D InSight Liver Models, production ID hLiMT_589, cryopreserved primary human hepatocytes (Lot IPDH_18; single donor) in monoculture or in co-culture with cryopreserved primary human nonparenchymal cells (Lot IPHN_17; single donor). Human liver microtissues are composed of roughly 1000 hepatocytes and 1000 non-parenchymal live cells. Non-parenchymal liver cell fractions are expected to be composed of Kupffer cells and liver endothelial cells however, these were not identified.
Mono and co-culture model cells were exposed to TAK-994 (0.1, 0.3, 1, 3.16, 10, 31.6, or 100 μM in 0.5% DMSO) for 7 days (TAK-994 administered on Days 0 and 4) or 14 days (TAK-994 administered on Days 0, 5, and 9). Six replicates were tested for each condition. The vehicle control was 0.5% DMSO, and the positive control was chlorpromazine (0.1, 0.3, 1, 3.16, 10, 31.6, or 100 μM in DMSO). Cellular ATP content was measured in the cell lysate on Days 7 or 14 of treatment. LDH release was measured in the cell supernatant on Days 4 and 7 or on Days 5, 9, and 14 and normalized to lysed controls.
as §1

[3] = tested on: HepG2 cells; experiment: HepG2 72-h cytotoxicity assay (glucose medium, ATP content); format: cell-based, human
Experimental: (§2) Cytotoxicity of TAK-994 was evaluated in glucose or galactose medium after 24 h and in glucose medium after 72 h in HepG2 cells, with cryopreserved HepG2 cells thawed and seeded onto assay plates at 5,000 cells/well in glucose or galactose medium for the 24-h assay and at 2,500 cells/well in glucose medium for the 72-h assay. After ∼24 h of incubation at 37 °C in 5% CO2, the cells were incubated with test solutions under the same conditions for 24 h for the plate with 5,000 cells/well or 72 h for the plate with 2,500 cells/well. Cytotoxicity of TAK-994 was also assessed using HepG2 cells with CYP3A4 overexpression using a lentivirus vector. HepG2/CYP3A4 cells were incubated in media containing TAK-994 (0.09 to 200 μM), positive control aflatoxin B1 (0.04 to 80 μM), or 1.0% DMSO (negative control). In both cytotoxicity assays, adenosine triphosphate (ATP) content was assessed after incubation using a commercial luminescence assay (CellTiter-Glo; Promega Co., Ltd, WI, United States).
HepG2 cells (American Type Culture Collection [ATCC, VA, USA]) were acclimated to Dulbecco's Modified Eagle Medium (DMEM; Thermo Fisher Scientific, MA, USA) with either high glucose or high galactose and containing 10% FBS for 1 week then cryopreserved. The cryopreserved HepG2 cells were thawed, cultured for 24 hours, then seeded at 5000 cells/well in glucose or galactose medium for the 24-hour assay and at 2500 cells/well in glucose medium for the 72-hour assay onto the assay plates. After approximately 24 hours of incubation at 37°C in 5% CO2, the cells were incubated with test solutions under the same conditions for 24 hours for the plate with 5000 cells/well or 72 hours for the plate with 2500 cells/well. After the incubation, CellTiter-Glo® (Promega Co., Ltd., WI, USA) was added to the assay plates, cells were incubated for 30 minutes, and luminescence was recorded to measure the ATP content using an EnVision plate reader (PerkinElmer Co., Ltd., MA, USA). The test compound TAK-994 was evaluated at concentrations of 0.046, 0.14, 0.41, 1.2, 3.7, 11, 33, and 100 μM. Positive controls rotenone and staurosporine were purchased from FUJIFILM Wako Pure Chemical Corporation (Osaka, Japan) and evaluated at concentrations of 0.046, 0.14, 0.41, 1.2, 3.7, 11, 33, and 100 μM in DMSO (rotenone) or 0.0046, 0.014, 0.041, 0.12, 0.37, 1.1 , 3.3, and 10 μM in DMSO (staurosporine). Two experiments were conducted at each concentration.
Inhibition rate (%) = (1-mean of sample values / mean of Max values) × 100, where Max values = vehicle control.

[4] = tested on: nonTg-rasH2 mice; experiment: NonTg rasH2 mice 4-week oral gavage toxicity study; format: in vivo, mouse; conditions: for Histopathological Liver Findings / ALT / AST / GLDH: NonTg rasH2 mice 4-week; for ALT / AST / GLDH: mean (SD)
Experimental: Although phase I human clinical trials were ongoing, additional GLP-compliant repeat-dose oral toxicity studies were conducted in nonTg-rasH2 mice, to enable carcinogenicity studies. […] The liver toxicity presented at high doses ≥300 mg/kg/day as single-cell necrosis of periportal hepatocytes associated with increased aspartate aminotransferase (AST), alkaline phosphatase, ALT, and glutamate dehydrogenase values that increased in a dose-proportional manner alongside cytochrome P450 induction (Table S2).
^cAll dose levels had 10 animals per sex.
*p<0.05 using Shirley-Williams test.

[5] = tested on: HepG2 cells; experiment: HepG2 Glu/Gal 24-h cytotoxicity (mitochondrial toxicity); format: cell-based, human; conditions: glucose or galactose medium
Experimental: as §2
HepG2 cells (American Type Culture Collection [ATCC, VA, USA]) were acclimated to Dulbecco's Modified Eagle Medium (DMEM; Thermo Fisher Scientific, MA, USA) with either high glucose or high galactose and containing 10% FBS for 1 week then cryopreserved. […] After the incubation, CellTiter-Glo® (Promega Co., Ltd., WI, USA) was added to the assay plates, cells were incubated for 30 minutes, and luminescence was recorded to measure the ATP content using an EnVision plate reader (PerkinElmer Co., Ltd., MA, USA). The test compound TAK-994 was evaluated at concentrations of 0.046, 0.14, 0.41, 1.2, 3.7, 11, 33, and 100 μM. Positive controls rotenone and staurosporine were purchased from FUJIFILM Wako Pure Chemical Corporation (Osaka, Japan) and evaluated at concentrations of 0.046, 0.14, 0.41, 1.2, 3.7, 11, 33, and 100 μM in DMSO (rotenone) or 0.0046, 0.014, 0.041, 0.12, 0.37, 1.1 , 3.3, and 10 μM in DMSO (staurosporine). […]

## CC(C)(O)C(=O)N1CC[C@H](NS(C)(=O)=O)[C@@H]1Cc1cccc(-c2cc(F)cc(F)c2)c1F.CC(C)(O)C(=O)N1CC[C@H](NS(C)(=O)=O)[C@@H]1Cc1cccc(-c2cc(F)cc(F)c2)c1F.O.O.O [TAK-994]
[1]
  sensitization of liver microtissues by LPS (innate immune activation): no direct innate immune-mediated toxicity was observed
[1]; read-out: IC50, liver microtissues + LPS (Fig. 5A)
  IC50: > 100 µM
[1]; read-out: IC50, liver microtissues without LPS (Fig. 5A)
  IC50: > 100 µM
[2]; 100 µM TAK-994, absence of nonparenchymal cells
  loss of cellular ATP: ~50%
[2]; cellular ATP, read-out: IC50, hepatocyte spheroids (Fig. 2B)
  IC50: > 100 µM
[3]
  IC50: > 100 µM
  cytotoxicity margin (Cmax/IC50): > 100 ×
[3]; human
  top test concentration (100 µM) relative to Cmax in patients: ~100 fold
[4]; female, 300 mg/kg
  Histopathological Liver Findings: Single cell necrosis of hepatocytes
  ALT: 175 (79)* IU/L
  AST: 163 (65)* IU/L
  GLDH: 172 (66)* IU/L
[4]; female, 2000 mg/kg
  Histopathological Liver Findings: Single cell necrosis of hepatocytes
  ALT: 581 (278)* IU/L
  AST: 317 (203)* IU/L
  GLDH: 562 (324)* IU/L
[4]; female, 4000 mg/kg
  Histopathological Liver Findings: Single cell necrosis of hepatocytes
  ALT: 1242 (604)* IU/L
  AST: 473 (216)* IU/L
  GLDH: 1384 (585)* IU/L
[4]; male, 300 mg/kg
  Histopathological Liver Findings: Single cell necrosis of hepatocytes
  ALT: 99 (57)* IU/L
  AST: 79 (34)* IU/L
  GLDH: 104 (68)* IU/L
[4]; male, 2000 mg/kg
  Histopathological Liver Findings: Single cell necrosis of hepatocytes
  ALT: 337 (409)* IU/L
  AST: 211 (299)* IU/L
  GLDH: 331 (356)* IU/L
[4]; male, 4000 mg/kg
  Histopathological Liver Findings: Single cell necrosis of hepatocytes
  ALT: 1164 (330)* IU/L
  AST: 443 (150)* IU/L
  GLDH: 1303 (408)* IU/L
[4]; nonTg-rasH2 mice, repeat-dose oral
  doses at which liver toxicity (single-cell necrosis of periportal hepatocytes, increased AST, ALP, ALT, GLDH) presented: ≥ 300 mg/kg/day
[5]
  IC50: > 100 µM

— publication PMC11939078, “TAK-994 mechanistic investigation into drug-induced liver injury” (Toxicological Sciences, 2025)
